Measurements reported in US20040229356A1, “In vitro mass production of human erythroid cells from the blood of normal donors and thalassemic patients” (ISTITUTO SUPERIORE DI SANITA, priority 2003, published 2004).

What was measured:
CD34^+ cells [1] = test: Proliferative-phase liquid culture of CD34+ cells (total cell number, benzidine staining); type: cell-based, human; details: day 8 of proliferative phase; estradiol or dexamethasone added to GFs (SCF, IL-3, EPO)
Method: Light-density cells were collected, washed with Hank's basal salt solution supplemented with 1% (w/v) bovine serum albumin, and either cultured directly or cryopreserved in 10% dimethyl sulfoxide (Sigma, St. Louis, Mo.). Frozen cadaveric marrow cells obtained from Northwest Tissue Center, Puget Sound Blood Bank (Seattle, Wash.) were thawed, washed, and incubated overnight in IMDM with 10% fetal calf serum on tissue culture plates to remove adherent cells. […]
Cell morphology was analyzed according to standard criteria on cytocentrifuged (Shandon, Astmoor, England) smears stained with May-Grumwald-Giemsa. […] The cell antigenic profile was analyzed by flow cytometry with a Coulter Elite ESP Cell Sorter (Coulter, Miami, Fla.) according to standard protocols. […] Cells incubated with the corresponding, irrelevant, isotype-matched antibodies were used for gating nonspecific fluorescence and dead cells were excluded by propidium iodide staining (5 μg/mL) (Sigma).
The total cell number observed in cultures of CD34^+ cells cultured for up to 14 days in the presence of the combination of SCF, IL-3 and EPO (growth factors, GFs), alone or with the further addition of estradiol or of dexamethasone, is presented in FIG. 1. In all three conditions analyzed, the total cell number per culture rose from 0.1×10^6 cells at day 0 to 10×10^6 at day 7 and continued to increase, reaching up to 100×10^6 by day 13. […]

CD34^+ cells [2] = test: Differentiative-phase culture (EPO and insulin, 5 additional days) of cells harvested from the proliferative phase, benzidine staining; type: cell-based, human; details: for frequency of benzidine^pos cells after differentiative phase: independent of priming duration (either 8 or 13 days) with GFs plus the steroid, then EPO and insulin
Method: Light-density cells and CD34^+ cells were cultured for the proliferative phase in Iscove's modified Dulbecco's medium (IMDM, Mascia Brunelli, Milan, Italy) containing 20% of fetal bovine serum (FBS, Hyclone, Logan, Utah) and supplemented with Stem Cell Factor (SCF, 10 ng/mL) (Amgen, Thousand Oaks, Calif.), Erythropoietin (EPO, 1 u/mL) (Epoetina alfa, Dompe Biotec, Milan, Italy), Interleukin-3 (IL-3, 1 ng/mL) (Bouty, Milan, Italy), dexamethasone (10^−6 M) (Sigma), and estradiol (10^−6 M) (Sigma). Light-density and CD34^+ cells were seeded at a concentration of 10^6 and 10^5 cells/mL, respectively.
Cell morphology was analyzed according to standard criteria on cytocentrifuged (Shandon, Astmoor, England) smears stained with May-Grumwald-Giemsa. Hemoglobin-containing cells were identified by benzidine staining (S. H. Orkin, Proc. Natl. Acad. Sci. USA 72, 98-102 (1975)). The cell antigenic profile was analyzed by flow cytometry with a Coulter Elite ESP Cell Sorter (Coulter, Miami, Fla.) according to standard protocols. […] Cells incubated with the corresponding, irrelevant, isotype-matched antibodies were used for gating nonspecific fluorescence and dead cells were excluded by propidium iodide staining (5 μg/mL) (Sigma).
The total cell number observed in cultures of CD34^+ cells cultured for up to 14 days in the presence of the combination of SCF, IL-3 and EPO (growth factors, GFs), alone or with the further addition of estradiol or of dexamethasone, is presented in FIG. 1. In all three conditions analyzed, the total cell number per culture rose from 0.1×10^6 cells at day 0 to 10×10^6 at day 7 and continued to increase, reaching up to 100×10^6 by day 13. […] The total number of erythroid cells obtained at the end of the proliferative-plus-differentiative phase can be calculated by multiplying the total number of cells presented in FIG. 1 by the frequency of benzidinepos cells presented in FIG. 2. […]

C[C@@H]1C[C@H]2[C@@H]3CCC4=CC(=O)C=C[C@]4(C)[C@@]3(F)[C@@H](O)C[C@]2(C)[C@@]1(O)C(=O)CO [dexamethasone]
percent of benzidine positive cells (mature erythroid cells) (CD34^+ cells [1]): < 10% | total number of erythroid cells obtained at end of proliferative-plus-differentiative phase (CD34^+ cells [2]; differentiation started at day 8 of proliferative phase, total cell number multiplied by benzidine^pos frequency): ≤ 7×10^6 erythroid cells | frequency of benzidine^pos cells after differentiative phase (CD34^+ cells [2]): 80-95%

C[C@]12CC[C@@H]3c4ccc(O)cc4CC[C@H]3[C@@H]1CC[C@@H]2O [estradiol]
frequency of benzidine^pos cells after differentiative phase (CD34^+ cells [2]): 40-60%
